Reference: patent US20120213826A1, “Use of Pro-Inflammatory Compounds for Promoting Bone Formation” (Imperial Innovations Limited, priority 2009, published 2012)
“Also recorded” adds a separate entry of the source. Where two headings read alike, the source gives them in different places.

Assays:
[1] = test system: muscle-derived stromal cells (MDSC); assay: ALP quantification assay, osteogenic differentiation of cultured MDSC; assay type: cell-based, human
From the text: The immunoglobulin isotype controls used included IgG^1 for AbBMP-2/4 and AbTGF-β, and IgG^2B for Ab-BMP-7. B: human serum containing culture medium with the addition of recombinant human BMPs and TGF-β. C: fracture supernatant±antibody neutralization of TNF-α, IL-6 and IL-1β. The IgG^1 immunoglobulin was used as the antibody isotype control. D: human serum-containing culture medium with the addition of recombinant human TNF-α, IL-6 and IL-1β. E: Alizarin red staining for bone nodule formation after culture of 1×10^4 MDSC in human serum-containing media. […] A representative image from a single well is shown. All experiments were performed 3 times, in triplicate (n=3) using MDSC from 3 donors. Values for A-D represent a mean from 3 experiments ±SEM, using supernatant from 3 donors in A and C. *: P<0.05; **: P<0.01; ***: P<0.001; 1-way ANOVA with Bonferroni's multiple comparison test in A and C and with Dunnett's multiple comparison test against the media only control in B and D.
To investigate the fracture-derived stimulus for osteogenic differentiation of MDSC, fracture supernatants were prepared using human tibial fracture fragments obtained within 24 hours of injury (ethics approval number—COREC No: 07/Q0411/30). […] Bone fragments were obtained from either fractured tibial fragments or non-traumatically cut bone slices. These were then incubated in serum free DMEM+Glutamax media for 24 hours. The supernatant was then filter sterilised to remove any contaminants and cellular debris. MDSC were then cultured in the presence of either control media, osteogenic media, fracture supernatant or non-fracture supernatant for 7 days before lysis and quantification of ALP levels.
1×10^4 human MDSC were added to wells of a 96 well plate in triplicate. At 24 hrs the media was pipetted off and replaced by 200 μl test media. The media was changed every 3 days. At 7 days the media was removed and the cells lysed in 20 μl NP-40 lysis buffer. An ALP quantification assay (WAKO pure chemical Ltd.) was used. Calibration solution from the assay was serially diluted to make concentrations of 0.25, 0.125 and 0.0625 mmol/L. To empty wells, 20 μl of each calibration solution was added. To another, dH2O was added. 100 μl reagent (1 taBIet per 5 ml buffer solution) was added to each well, and incubated at 37° C. for 20 minutes. 80 μl stop solution was then added to each well and the plate was read using an ELISA spectrometer at 405 nm wavelength. The concentration of ALP in the test wells was extrapolated from the standard curve.

[2] = test system: muscle-derived stromal cells (MDSC); assay: Bone nodule formation by MDSC (alizarin red staining); assay type: cell-based, human
From the text: FIG. 26 TNF-α and IL-6 promote osteogenic differentiation of MDSC A-D: ALP quantification assays after culture of 1×10^4 MDSC for 7 days in a 96-well plate in triplicate with: A: fracture supernatant, ±antibody neutralization of BMPs 2/4 7 and to TGF-β. The immunoglobulin isotype controls used included IgG^1 for AbBMP-2/4 and AbTGF-β, and IgG^2B for Ab-BMP-7. B: human serum containing culture medium with the addition of recombinant human BMPs and TGF-β. C: fracture supernatant±antibody neutralization of TNF-α, IL-6 and IL-1β. The IgG^1 immunoglobulin was used as the antibody isotype control. D: human serum-containing culture medium with the addition of recombinant human TNF-α, IL-6 and IL-1β. E: Alizarin red staining for bone nodule formation after culture of 1×10^4 MDSC in human serum-containing media. Recombinant human cytokine at the optimal dose indicated by D, was added for the first 3 days ONLY, and the cells were subsequently cultured in media for 32 days. A representative image from a single well is shown. All experiments were performed 3 times, in triplicate (n=3) using MDSC from 3 donors. Values for A-D represent a mean from 3 experiments ±SEM, using supernatant from 3 donors in A and C. *: P<0.05; **: P<0.01; ***: P<0.001; 1-way ANOVA with Bonferroni's multiple comparison test in A and C and with Dunnett's multiple comparison test against the media only control in B and D.
1×10^4 MDSC were added to wells of a 24-well plate in triplicate. The cells were cultured for 35-40 days in osteogenic media (DMEM with 10% fetal calf serum and 1% penicillin/streptomycin also containing 100 nM dexamethasone (SIGMA), 1 mM β-glycerol phosphate and […] ascorbic acid), supernatant or media containing recombinant cytokines (with one media change per week) the cells were fixed with 2 ml 10% neutral buffered formalin at room temperature for 15 min. The plate was then washed twice with excess PBS. 1 ml filtered 40 mM alizarin red solution (pH 4.1) was added to each well and agitated at room temperature for 30 minutes. The excess dye was then aspirated and the plate washed four times in distilled water with gentle agitation. Finally, the plates were turned upside-down on paper to dry. Bone nodules appeared red under light microscopy. Images were taken at 20 times magnification and performed as above.

[3] = test system: osteoclast; conditions: TNF-α at 1 ng/ml; cited from earlier work
[4] = test system: muscle-derived stromal cells (MDSC); assay: MDSC proliferation (CellTiter-Glo luminescent cell viability assay); assay type: cell-based, human
Method: CellTiter-Glo® luminescent cell viability assay for MDSC in culture with A: TNF-α, B: IL-6 and C: IL-1β. 2.5×10^3 cells were cultured in triplicate for 1, 3 and 5 days in human serum-containing media ± recombinant human cytokine at the concentration indicated. The number of viaBIe cells in culture was determined using the assay, where luminescent signal is directly proportional to the concentration of ATP from viaBIe cells.
In order to test this hypothesis, proliferation of MDSC in human serum-containing media with rhTNF-α, rhIL-6 and rhIL-1β was tested using the CellTiter-Glo® luminescent cell viability assay was used (Promega Corp., Madison, Wis.).
This method assays the number of viaBIe cells in culture, by measuring adenosine triphosphate (ATP), where the luminescent signal is directly proportional to the number of ATP present.

[5] = cited from earlier work
[6] = test system: murine open tibial fracture; assay: Murine open tibial fracture model, periosteally stripped (histology, CT scans); assay type: in vivo, C57BI/6 mice

## TNFα
[1]; Example 1, exogenous recombinant human factor added to MDSC culture (FIG. 8, 10, 12)
  ALP expression (osteogenic differentiation) in cultured MDSC: dose-dependent stimulation of ALP expression
[1]; Example 3, 7 days in human serum-containing media with recombinant human factor (FIG. 26B, 26D)
  ALP expression by MDSC: stimulated ALP expression
[1]; Example 3, 7 days, human serum-containing media (FIG. 26D)
  concentration at which ALP expression by MDSC is stimulated: up to 1 ng/ml
[1]; Example 3, TNF-α at 100 ng/ml, 7 days (FIG. 26D)
  ALP expression by MDSC relative to control: non-significantly less than the control
[2]; Example 1, cytokine at 1 ng/ml, 5 weeks (FIG. 13)
  bone nodule formation by MDSC: promoted; also recorded: pronounced bone nodule formation
[2]; Example 3, recombinant cytokine at optimal dose for first 3 days, human serum-containing media (FIG. 26E)
  bone nodule formation by MDSC: stimulated vigorous nodule formation
[3]
  decrease of osteoclast number: > 90%
[4]; Example 1 discussion, TNFα 1 ng/ml
  proliferation of MDSC: led to proliferation of MDSC
[4]; Example 3, 1, 3 and 5 days in human serum-containing media ± recombinant human cytokine (FIG. 28)
  MDSC proliferation: do not promote MDSC proliferation
[5]; in the presence of soluble TNFα receptors
  plasma half life: up to 6 hours
[5]; in vivo
  plasma half life: less than 1 hour
[6]; 20 μl in PBS at fracture site, histology day 14 (FIG. 18)
  optimal dose for fracture healing: 50 ng/mL
[6]; 20 μl in PBS, 1 ng/ml equivalent to 1 ng/kg, histology day 14 (FIG. 18)
  optimal dose range for fracture healing: around 50 ng/kg
[6]; 28 days post injury, local administration at fracture site (TNFα 50 ng/kg and HMGB1 at time of fracture and 24 hr later) (FIG. 19, 30)
  healing of tibial fractures by CT scans: improved healing
[6]; TNFα 5 ng/ml at fracture site (FIG. 18)
  fracture healing: less pronounced effect
[6]; TNFα 500 ng/ml (500 ng/kg) at fracture site, versus PBS vehicle (FIG. 18)
  fracture healing: inhibitory
[6]; TNFα 500 ng/ml (500 ng/kg) at fracture site, versus PBS vehicle (FIG. 18), listed as rhTNFα
  fracture healing: inhibits fracture healing
[6]; exogenous addition at fracture site, histology day 14, log dose range 5-500 ng/ml (FIG. 18)
  fracture healing compared to control C57BI/6 mice: accelerated fracture healing
